ChEMBL document CHEMBL1201862, “PubChem BioAssay data set” (2004)
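Following 48 hours of exposure in 96-well plates, responses at five concentrations were used to interpolate endpoints linearly. The concentration for 50% growth inhibition is given as GI50.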 Active and inactive are the calls of the source. Cut-off read from the data, not from the text of the source: active = GI50 up to about 1.1 µM and inactive = higher.

Tests used:
Assay in all cases: DTP human tumour cell line panel, 48 h
[1] = tested on: NCI-H23
[2] = tested on: CAKI-1
[3] = tested on: KM12
[4] = tested on: SW-620
[5] = tested on: IGROV-1
[6] = tested on: RPMI-8226
[7] = tested on: TK-10
[8] = tested on: SF-539
[9] = tested on: HCT-116
[10] = tested on: SNB-19
[11] = tested on: NCI-H226
[12] = tested on: SF-295
[13] = tested on: SN12C
[14] = tested on: SNB-75
[15] = tested on: NCI-H460
[16] = tested on: HL-60
[17] = tested on: COLO 205
[18] = tested on: SK-OV-3
[19] = tested on: MDA-MB-435

Measured: GI50

CS(=O)(=O)CC1=Nc2nnc(CCCCCCCc3nnc4n3C(=O)C(CS(C)(=O)=O)=N4)n2C1=O
inactive: [1] > 100 µM | [2] > 100 µM | [3] > 100 µM | [4] > 100 µM | [5] > 100 µM | [6] > 100 µM | [7] > 100 µM | [8] > 100 µM | [9] > 100 µM | [10] > 100 µM | [11] > 100 µM | [12] > 100 µM | [13] > 100 µM | [14] > 100 µM | [15] > 100 µM | [16] > 100 µM | [17] > 100 µM | [18] > 100 µM

COc1cccc(N2C(=O)C3C4C=C5c6ccccc6N(c6ccccc6)C5(C3C2=O)[C@H]2C(=O)N(c3cccc(OC)c3)C(=O)[C@@H]42)c1 (some centres not stated)
inactive: [1] > 100 µM | [2] > 100 µM | [3] > 100 µM | [4] > 100 µM | [5] > 100 µM | [6] > 100 µM | [7] > 100 µM | [8] > 100 µM | [9] > 100 µM | [10] > 100 µM | [11] > 100 µM | [12] > 100 µM | [13] > 100 µM | [14] > 100 µM | [15] > 100 µM | [16] > 100 µM | [17] > 100 µM | [18] > 100 µM

O=C(O/N=C1/CCC/C1=C\c1ccccc1)c1ccc([N+](=O)[O-])cc1
inactive: [1] > 100 µM | [2] > 100 µM | [3] > 100 µM | [4] > 100 µM | [5] > 100 µM | [6] > 100 µM | [7] > 100 µM | [8] 89.3 µM | [9] > 100 µM | [11] > 100 µM | [12] > 100 µM | [13] > 100 µM | [14] 31.6 µM | [15] > 100 µM | [16] > 100 µM | [17] > 100 µM | [18] > 100 µM

CN1C2(c3ccccc3)C(C(=O)c3ccccc3)=C(C(=O)c3ccccc3)C1(c1ccccc1)c1c(-c3ccccc3)sc(-c3ccccc3)c12
inactive: [1] > 100 µM | [2] > 100 µM | [3] > 100 µM | [4] > 100 µM | [5] > 100 µM | [6] > 100 µM | [7] > 100 µM | [8] > 100 µM | [9] > 100 µM | [10] > 100 µM | [11] 78.5 µM | [12] > 100 µM | [13] > 100 µM | [14] > 100 µM | [15] > 100 µM | [16] > 100 µM | [17] > 100 µM | [18] > 100 µM

COc1ccc2c(c1)C(=O)Cc1ccccc1CC2
inactive: [1] > 100 µM | [2] > 100 µM | [3] > 100 µM | [4] > 100 µM | [5] > 100 µM | [6] > 100 µM | [7] > 100 µM | [8] > 100 µM | [9] > 100 µM | [10] > 100 µM | [11] > 100 µM | [12] > 100 µM | [13] > 100 µM | [14] 27.7 µM | [15] > 100 µM | [16] > 100 µM | [17] > 100 µM | [18] > 100 µM

C[N+](C)(C)CC(=O)N/N=C/c1oc(-c2c(O)ccc3ccccc23)c(-c2c(O)ccc3ccccc23)c1[N+](=O)[O-]
inactive: [1] 16.4 µM | [2] 24.7 µM | [3] 11.5 µM | [4] 21.5 µM | [5] 11 µM | [6] 27 µM | [7] 26.3 µM | [8] 14.7 µM | [9] 12.2 µM | [10] 28.2 µM | [11] 17.4 µM | [12] 17.1 µM | [13] 24.2 µM | [14] 14.7 µM | [15] 19.5 µM | [16] 18.5 µM | [17] 21.9 µM | [18] 14.2 µM

CC1=C(C)CC2(SC1)C(=O)c1ccccc1C2=O
inactive: [2] 65.9 µM | [3] > 100 µM | [4] > 100 µM | [5] > 100 µM | [6] > 100 µM | [7] > 100 µM | [8] > 100 µM | [9] > 100 µM | [10] > 100 µM | [11] > 100 µM | [12] > 100 µM | [13] > 100 µM | [14] > 100 µM | [15] > 100 µM | [16] > 100 µM | [17] > 100 µM | [18] > 100 µM

C/C=C/C(C#N)(/C=C/c1ccccc1)OP1(=O)OC(c2ccccc2)C(C)N1C (configuration not stated)
inactive: [2] 23.3 µM | [19] 18.2 µM | [3] 19 µM | [4] 16.1 µM | [5] 16.4 µM | [6] 15.2 µM | [7] 19.9 µM | [8] 17.8 µM | [9] 16.6 µM | [10] 20.7 µM | [12] 16.3 µM | [13] 19.2 µM | [14] 20.5 µM | [15] 17.9 µM | [16] 12.6 µM | [17] 17.2 µM | [18] 25.8 µM

CC(=O)n1c2c(c(=O)n1-c1ccccc1)[S+]([O-])CCC2 (configuration not stated)
inactive: [1] > 100 µM | [2] 55.5 µM | [3] 9.1 µM | [4] 33.3 µM | [5] 99.1 µM | [6] 6.08 µM | [7] > 100 µM | [8] 20.4 µM | [9] 44.1 µM | [10] > 100 µM | [11] > 100 µM | [13] > 91.4 µM | [14] 51.4 µM | [15] 16.7 µM | [16] 24.4 µM | [17] > 100 µM | [18] > 100 µM

CCOC(=O)C1Cc2c(ccc(OC)c2OC)C(=O)C1N (configuration not stated)
inactive: [1] > 100 µM | [2] > 100 µM | [3] > 100 µM | [4] > 100 µM | [5] > 100 µM | [6] > 100 µM | [7] > 100 µM | [8] > 100 µM | [9] > 100 µM | [10] > 100 µM | [11] > 100 µM | [12] > 100 µM | [13] > 100 µM | [14] > 100 µM | [15] > 100 µM | [16] > 100 µM | [17] > 100 µM | [18] > 100 µM

CCC(C)c1cnc(CC(C)C)c(=O)[nH]1 (configuration not stated)
inactive: [1] > 100 µM | [2] > 100 µM | [19] > 100 µM | [3] > 100 µM | [4] > 100 µM | [5] > 100 µM | [6] > 100 µM | [7] > 100 µM | [9] > 100 µM | [10] > 100 µM | [12] > 100 µM | [13] > 100 µM | [14] > 100 µM | [15] > 100 µM | [17] > 100 µM | [18] > 100 µM
